Assay results from patent US5760036A, “Aminediol protease inhibitors” (E. R. Squibb & Sons, Inc., priority 1995, dated 1998).
Read-outs that look alike come from different tables or passages of the source.

Columns and labels:
HIV protease = target: T1, HIV protease (Human immunodeficiency virus type 1 group M subtype B, UniProt P04585); test: HIV Protease Assay; type: biochemical; conditions: 4% DMSO, 450 μM substrate, pH 5.5, 30 minutes at 37° C., RP-HPLC; for HIV Protease % Inhibition at 10 μM: 10 μM inhibitor; for inhibition at 10 µM: pH 5.5, 10 μM inhibitor, read-out: HIV Protease % Inhibition at 10 μM
T1 construct: and purified protease
Summary of the method: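 Purified protease cleaved 450 μM octapeptide substrate in 50 mM sodium acetate pH 5.5 with 100 μg/ml BSA for 30 minutes at 37° C; product analyzed by reverse-phase HPLC at UV220 after H3PO4 quench. Inhibitors tested at final 10 μM with 4% DMSO.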

[1] = tested on: RF strain of HIV (CEM-SS cells); test: Cell Culture Anti-HIV Activity (cell viability, formazan); type: cell-based; conditions: CEM-SS cells, RF strain of HIV, multiplicity of infection 0.04, 6 days at 37° C., 450 nm, read-out: HIV (CEM Cells) IC50
Summary of the method: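 CEM-SS cells (5000/well) infected with HIV RF at MOI 0.04, exposed to half-log serial compound dilutions, incubated 6 days at 37° C. Viability read by tetrazolium reduction to formazan, absorbance 450 nm. IC50 is the concentration raising formazan in infected cells to 50% of uninfected, drug-free cells.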

[2] = Human immunodeficiency virus 1, CEM-SS, 144 h

Compound | HIV Protease % Inhibition at 10 μM (HIV protease) | IC50 [1] | inhibition at 10 µM (HIV protease) | IC50 [1, 2]
CC(C)(C)OC(=O)N[C@@H](Cc1ccccc1)[C@H](O)CNC[C@@H](O)[C@H](Cc1ccccc1)NC(=O)C(NC(=O)OCc1ccccc1)C(C)(C)CO (single isomer, unassigned; isomer b) [Compound 309, [1S-[1R*,2S*(2S*, 3R*)]]-[1-[[[3-[[(1,1-Dimethylethoxy)carbonyl]amino]-2-hydroxy-4-phenylbutyl]amino]-2-hydroxy-1-(phenylmethyl)-propyl]amino]carbonyl]-2-(hydroxymethyl)-2-methylpropyl]carbamic acid, phenylmethyl ester. isomer B] | 100% | 1800 nM | – | –
CC(C)(C)OC(=O)N[C@@H](Cc1ccccc1)[C@H](O)CNC[C@@H](O)[C@H](Cc1ccccc1)NC(=O)OC1CCCOC1 (stereo partly drawn) [Compound 318, [1S-(1R*,2S*)]-[Iminobis[2-hydroxy-1-(phenylmethyl)-3,1-propanediyl)]bis[carbamic acid], 1,1-dimethylethyl-3-tetrahydropyranyl ester] | – | – | 100% | 100 nM
CC(C)(C)OC(=O)N[C@@H](Cc1ccccc1)[C@H](O)CNC[C@@H](O)[C@H](Cc1ccccc1)NC(=O)C1NC(=O)OC1(C)C (single isomer, unassigned; isomer b) [Compound 240, [1S-[1R*,2S*(2S*,3R*)]]-[3-[[3-[[(5,5-Dimethyl-2-oxo-4-oxazolidinyl)carbonyl]amino]-2-hydroxy-4-phenylbutyl]amino]-2-hydroxy-1-(phenylmethyl)propyl]carbamic acid, 1,1-dimethylethyl ester, isomer B] | 99% | – | – | 2000 nM
CC1(C)CCCC1(O)C(=O)N[C@@H](Cc1ccccc1)[C@H](O)CNC[C@@H](O)[C@H](Cc1ccccc1)NC(=O)C1(O)CCCC1(C)C (single isomer, unassigned; isomer a) [Compound 336] | – | 40 nM | 100% | –
CC(C)(C)OC(=O)N[C@@H](Cc1ccccc1)[C@H](O)CNC[C@@H](O)[C@H](Cc1ccccc1)NC(=O)OC(C)(C)[C@@H](O)CO [Compound 227, [1S-(1R*,2S*),(R*)]-[Iminobis[2-hydroxy-1-(phenylmethyl)-3,1-propanediyl]]biscarbamic acid, 2,3-dihydroxy-1,1-dimethylpropyl 1,1-dimethylethyl ester] | – | – | 99% | 900 nM
CC(C)[C@H](NC(=O)OCc1ccccc1)C(=O)N[C@@H](Cc1ccccc1)[C@H](O)CNC[C@@H](O)[C@H](Cc1ccccc1)NC(=O)[C@H](CC(N)=O)NC(=O)OC(C)(C)C [Compound 121, [S-[1R*,2S*(2S*.3R*)]]-N^2-[(1-Dimethylethoxy)carbonyl]-N-[2-hydroxy-3-[[2-hydroxy-4-phenyl-3-[[N-[(phenylmethoxy)carbonyl]-L-valyl]amino]butyl]amino]-1-(phenylmethyl)-propyl]-L-asparaginamide] | – | – | 73% | > 300 nM
CC(C)(C)OC(=O)N[C@@H](Cc1ccccc1)[C@H](O)CNC[C@@H](O)[C@H](Cc1ccc(OCCc2ccccn2)cc1)NC(=O)OC(C)(C)C [Compound 178, [1S-[1R*,2S*(2S*,3R*)]]-[3-[[3-[[(1,1-Dimethylethoxy)carbonyl]amino]-2-hydroxy-4-(4-[2-(2-pyridinyl)ethoxy]phenyl]butyl]amino]-2-hydroxy-1-(phenylmethyl)-propyl]carbamic acid, 1,1-dimethyl-ethyl ester] | – | – | 99% | 30 nM
CC(C)[C@H](NC(=O)OC1CCc2ccccc21)C(=O)N[C@@H](Cc1ccccc1)[C@H](O)CNC[C@@H](O)[C@H](Cc1ccccc1)NC(=O)OC(C)(C)C (stereo partly drawn) [Compound 67, [S-[1R*,2S*(2S*,3R*)]]-N^2-[[2,3-Dihydro-1H-inden-1-yl)oxy]carbonyl]-N-[3-[[3-[[(1,1-dimethylethoxy)carbonyl]amino]-2-hydroxy-4-phenylbutyl]amino]-2-hydroxy-1-(phenylmethyl)propyl]-L-valinamide] | – | – | 100% | 40 nM
CC(C)[C@H](NC(=O)OCc1nc2ccccc2o1)C(=O)N[C@@H](Cc1ccccc1)[C@H](O)CNC[C@@H](O)[C@H](Cc1ccccc1)NC(=O)OC(C)(C)C (relative stereo) [Compound 171, S-[1R*,2S*(2S*,3R*)]-N^2-[[(2-Benzo-xazolyl)methoxy]carbonyl]-N-[3-[[3-[[(1,1-dimethylethoxy)carbonyl]amino]-2-hydroxy-4-phenylbutyl]amino]-2-hydroxy-1-(phenylmethyl)-propyl]-L-valinamide] | – | – | 99% | 50 nM
CC(C)(C)OC(=O)N[C@@H](Cc1ccccc1)[C@H](O)CNC[C@@H](O)[C@H](Cc1ccccc1)NC(=O)OC(C)(C)C [Compound 2, [1S-[1R*,2S*(2S*,3R*)]]-[3-[[3-[[(1,1-Dimethylethoxy)carbonyl]amino]-2-hydroxy-4-phenylbutyl]amino]-2-hydroxy-1-(phenylmethyl)propyl]carbamic acid, 1,1-dimethylethyl ester] | – | – | 100% | 90 nM
CC(C)(C)OC(=O)N[C@@H](Cc1ccccc1)[C@H](O)CNC[C@@H](O)[C@H](Cc1ccccc1)NC(=O)[C@H](CC(N)=O)NC(=O)OCc1ccccc1 [Compound 53, [1S-[1R*,2S*(2S*3R*)]]-N-[3-[[3[[(1,1-Dimethylethoxy)-carbonyl]amino]-2-hydroxy-4-phenylbutyl]amino]-2-hydroxy-1-(phenylmethyl)propyl]-N^2 [(phenylmethoxy)-carbonyl]-L-aspartamide] | – | – | 99% | 540 nM
CC1(C)CCCC1(O)C(=O)N[C@@H](Cc1ccccc1)[C@H](O)CNC[C@@H](O)[C@H](Cc1ccccc1)NC(=O)C1(O)CCCC1(C)C (single isomer, unassigned; isomer b) [Compound 337] | 99% | 290 nM | – | –
CC(C)(C)OC(=O)N[C@@H](Cc1ccccc1)[C@H](O)CNC[C@@H](O)[C@H](Cc1ccccc1)NC(=O)O[C@@H]1CCc2ccccc21 [Compound 145, [1S-(1R*,2S*)]-[Iminobis[2-hydroxy-1-(phenylmethyl)-3,1-propanediyl)]biscarbamic acid, 1,1-dimethylethyl(R)-2,3-dihydro-1H-inden-1-yl ester] | – | – | 95% | > 2200 nM
CC(C)(C)OC(=O)N[C@@H](Cc1ccccc1)[C@H](O)CNC[C@@H](O)[C@H](Cc1ccccc1)NC(=O)[C@@H](NC(=O)OCc1ccccc1)C(C)(C)C [Compound 88, [1S-[1R*-[1R*,2S*(2S*,3R*)]]]-2,2-Dimethyl-1-[[[3-[[3-[[(1,1-Dimethylethoxcy)-carbonylamino]-2-hydroxy-4-phenylbutyl]amino]-2-hydroxy-1-(phenylmethyl),propyl]amino]-carbonyl]propoyl]carbamic acid, phenylmethyl ester] | – | – | 100% | 30 nM
CC(C)(C)OC(=O)N[C@@H](Cc1ccccc1)[C@H](O)CNC[C@@H](O)[C@H](Cc1ccccc1)NC(=O)[C@H](CCO)NC(=O)OCc1ccccc1 (relative stereo) [Compound 264, [1R*2S*(2S*,3R*)]-N-[3-[[3-[[(1,1-Dimethylethoxy)carbonyl]amino]-2-hydroxy-4-phenylbutyl]amino]-2-hydroxy-l-(phenylmethyl)propyl]-N^2-[(phenylmethoxy)carbonyl]-L-homoserinamide] | – | – | 99% | 160 nM
CC(C)(C)OC(=O)N1Cc2ccccc2CC1C(O)CNCC(O)C1Cc2ccccc2CN1C(=O)OC(C)(C)C (stereo not drawn) [Compound 11, [R-(R*,R*)]-3,3'[Iminobis(1-hydroxy-2,1-ethanediyl)]-bis[2(1H)-isoquinolinecarboxylic acid], bis(1,1-dimethylethyl) ester] | – | – | 0% | > 6000 nM
CC(C)(C)OC(=O)N[C@@H](Cc1ccccc1)[C@H](O)CNC[C@@H](O)[C@H](Cc1ccc(OCCOc2cccnc2)cc1)NC(=O)OC(C)(C)C [Compound 304, [1S-[1R*,2S* (2S*, 3R*)]]-[3-[[3-[[(1,1-Dimethylethoxy)carbonyl]amino]-2-hydroxy-4-[4-[2-(3-pyridinyloxy)ethoxylphenyl]butyl]amino]-2-hydroxy-1-(phenylmethyl)propyl]carbamic acid, 1,1-dimethylethyl ester] | – | – | 99% | 30 nM
CC(C)(C)OC(=O)N[C@@H](Cc1ccccc1)[C@H](O)CNC[C@@H](O)[C@H](Cc1ccccc1)NC(=O)C1(NC(=O)OCc2ccccc2)CCCC1 [Compound 87, [1S-[1R*,2S*(2S*,3R*)]]-[2-Hydroxy3-[[2-hydroxy-3-[[[1-[[(phenylmethoxy)-carbonyl]amino]cycloyentyl]carbonyl]amino]-4-phenylbutyl]-amino]-1-(phenylmethyl)propoyl]carbamic acid, 1,1-dimethylethyl ester] | – | – | 92% | > 880 nM
CC(O)COc1ccc(C[C@H](NC(=O)OC(C)(C)C)[C@H](O)CNC[C@@H](O)[C@H](Cc2ccccc2)NC(=O)OC(C)(C)C)cc1 (stereo partly drawn) [Compound 306, [1S-[1R*, 2S* (2S*, 3R*)]-[3-[[(1,1-Dimethylethoxy)carbonyl]amino]-2-hydroxy-4-[4-(2-hydroxypropoxy)phenyl]butyl]amino]-2-hydroxy-1-(phenylmethyl)propyl]carbamic acid, 1.1-dimethylethyl ester] | – | – | 100% | 60 nM
